The results in this text go back to patent US11534377B2, “Hair growth agent” (KOBAYASHI PHARMACEUTICAL CO., LTD., priority 2016, dated 2022).

The test system of assay [1] is C3H/He mice. The experiment in a line: New hair growth promoting activity in telogen-phase mice after hair removal (Example 3). The class given is in vivo. Particulars: 5 wt % in 50% ethanol, once/day 100 μl. From the text:
The hair follicle that produces a hair shaft is the only organ known to repeat growth and regression over the entire life. Such regular growth and regression are divided into the anagen phase, the catagen phase, and the telogen phase of a hair cycle. The body hair of the back of C3H/He mice is bound to be in the telogen phase 45 to 95 days after birth, and thus an extremely long telogen phase-bound period is observed compared with common mice, such as C57BL/6N mice, whose hair cycle of the body hair of the back lasts about 21 days in total for the anagen phase, the catagen phase, and the telogen phase. […] Therefore, by using C3H/He mice at 45 to 90 days after birth, new hair growth promoting activity can be evaluated. […]
The application was performed for two groups (test solution-applied group and negative control group (50% ethanol-applied group)), where each group consisted of five mice. On the basis of new hair growth score criteria (Table 15) according to appearance changes in a portion of the applied region that leaves the telogen phase and enters a regeneration phase, the degree of new hair growth in the applied region was quantified (range of 1 to 10 in which new hair growth scores concerning two items are summed) over time on day 0, 4, 5, 6, 7, 10, 11, 12, 13, 14, 17, 18, 19, 20, and 21 after hair removal. […]

Assay [2] has as its system hair papilla cells. The assay is described as follows: Hair papilla cell proliferation test by two-dimensional culture (Example 5). The class given is cell-based, C57BL/6N mouse. Particulars: final concentration 0.1 wt %, cultured for 3 days; FIG. 18. An excerpt: Hair papilla cells transmit new hair growth signals to hair matrix cells via signaling substances to activate hair matrix cells, thereby controlling processes of new hair growth and hair elongation. Accordingly, the hair shaft growth promoting activity and the like of test substances can be evaluated from a proliferation rate of hair papilla cells. In this Example, the skin of the whisker region was taken from a C57BL/6N mouse and hair papillae were harvested from isolated whisker follicles under a stereo microscope. Six hair papillae were fixed to the bottom surface of a 60 mm-plastic petri dish (from Sumitomo Bakelite Co., Ltd.), and the primary culture was performed at 37° C. in the presence of 5% CO2 by using a hair papilla cell culture medium in which 2% FCS (fetal calf serum), 0.6% ITT (insulin-transferrin-triiodothyronine mixture), 1% BPE (bovine pituitary extract), and 0.6% Cyp (cyproterone solution) were added to a PCGM base medium. Afterwards, the medium was replaced every 2 to 3 days and subculturing was repeated about every two weeks. In this experiment, hair papilla cells at passage 3 or less were used. […] The number of cells after culturing for 3 days was counted by using a hemocytometer, and proliferation rates in test solution A and the test solution B were calculated relative to 100% for a proliferation rate in the negative control as 100%.

For the molecule `OC1C(O)C(O)C(O)C(O)C1O` [D-chiro-inositol], the “Average timing of new hair growth (new hair growth score reached 1 or more), number of days after hair removal” value in assay [1] (FIG. 17, negative control day 9) was determined as 4 days. Moreover, the “New hair growth score vs negative control group” value in assay [1] (day 21 after hair removal, FIG. 16, P<0.05) is reported as “significantly higher”. Further, the “Hair papilla cell proliferation rate vs negative control” value in assay [2] is reported as “increased significantly”.
